# Results taken from patent US11560372B2, “Heterocyclic compounds useful as modulators of acetylcholine receptors” (TAKEDA PHARMACEUTICAL COMPANY LIMITED, priority 2017, dated 2023).
# How the values were obtained:
# [1] = target: T1, MDR1 (Homo sapiens, UniProt P08183); test: MDR1 membrane permeability test; type: in vitro ADME; settings: pH 7.4, efflux ratio (ER), Papp B to A / A to B, human MDR1-expressing LLC-PK1 cells, read-out: MDR1 substrate screening 1 μM (MDRSUB1)/Ratio (NUMBER)
# T1 construct: expressed in transfected cells
# T1 sequence (P08183 whole entry): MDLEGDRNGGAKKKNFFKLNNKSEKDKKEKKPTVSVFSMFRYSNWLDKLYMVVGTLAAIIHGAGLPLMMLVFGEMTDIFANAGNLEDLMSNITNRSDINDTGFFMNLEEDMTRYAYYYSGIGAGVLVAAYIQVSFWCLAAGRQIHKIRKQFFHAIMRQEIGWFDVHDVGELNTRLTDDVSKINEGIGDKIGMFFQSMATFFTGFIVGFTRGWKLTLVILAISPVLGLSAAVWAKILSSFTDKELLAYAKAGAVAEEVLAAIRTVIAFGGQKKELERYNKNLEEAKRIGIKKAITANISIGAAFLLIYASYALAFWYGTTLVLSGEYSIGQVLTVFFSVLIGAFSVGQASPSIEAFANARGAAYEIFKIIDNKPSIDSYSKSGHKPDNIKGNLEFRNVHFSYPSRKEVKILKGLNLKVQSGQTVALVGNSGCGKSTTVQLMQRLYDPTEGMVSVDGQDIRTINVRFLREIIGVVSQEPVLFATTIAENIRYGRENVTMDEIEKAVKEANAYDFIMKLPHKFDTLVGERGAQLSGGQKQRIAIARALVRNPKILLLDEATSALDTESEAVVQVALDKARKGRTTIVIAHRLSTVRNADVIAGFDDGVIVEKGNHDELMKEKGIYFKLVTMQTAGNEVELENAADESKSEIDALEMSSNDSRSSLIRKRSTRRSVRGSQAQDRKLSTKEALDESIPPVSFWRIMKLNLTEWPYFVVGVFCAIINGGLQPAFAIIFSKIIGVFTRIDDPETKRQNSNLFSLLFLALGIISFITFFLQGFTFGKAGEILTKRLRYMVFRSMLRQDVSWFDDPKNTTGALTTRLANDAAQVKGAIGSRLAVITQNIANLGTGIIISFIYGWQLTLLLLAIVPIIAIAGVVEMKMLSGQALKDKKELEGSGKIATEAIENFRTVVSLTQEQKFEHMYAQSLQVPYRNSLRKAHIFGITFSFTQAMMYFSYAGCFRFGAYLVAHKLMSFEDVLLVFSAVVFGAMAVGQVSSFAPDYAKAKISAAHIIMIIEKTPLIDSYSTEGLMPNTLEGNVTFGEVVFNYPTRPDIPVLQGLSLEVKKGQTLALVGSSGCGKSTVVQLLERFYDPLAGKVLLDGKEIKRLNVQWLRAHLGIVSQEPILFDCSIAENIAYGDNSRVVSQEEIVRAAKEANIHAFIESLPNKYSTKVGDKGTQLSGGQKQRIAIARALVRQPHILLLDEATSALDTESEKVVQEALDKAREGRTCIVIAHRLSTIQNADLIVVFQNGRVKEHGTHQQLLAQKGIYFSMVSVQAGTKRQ
# Method in brief: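 Human MDR1-expressing LLC-PK1 cells were grown for 3 days on 96-well polyethylene terephthalate Transwell supports (0.4 μm pores, 0.143 cm^2) seeded at 3.45×10^4 cells/well. After a 30 min preincubation in M199 medium with 10 mmol/L HEPES and 1% BSA (pH 7.4), drug was added apically or basolaterally. After 1 hr at 37° C, the opposite side was sampled and analyzed by LC-MS/MS. Efflux ratio was calculated from Papp B to A versus A to B.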
# [2] = target: T2, human M1 receptor (hCHRM1) (Homo sapiens, UniProt P11229); test: Measurement of M1 receptor positive allosteric modulator (M1PAM) activity, calcium fluorescence in CHO-K1 cells; type: cell-based; settings: for activity (%) at 10 μM: 10 μM test compound, 100% = acetylcholine final concentration 1 μM, 0% = DMSO; for EC50: inflection point of concentration-dependent curve, in the presence of acetylcholine at EC20 concentration (final 0.8-1.0 nM), read-out: IP value
# T2 construct: expressed in transfected cells
# T2 sequence (P11229 1-460): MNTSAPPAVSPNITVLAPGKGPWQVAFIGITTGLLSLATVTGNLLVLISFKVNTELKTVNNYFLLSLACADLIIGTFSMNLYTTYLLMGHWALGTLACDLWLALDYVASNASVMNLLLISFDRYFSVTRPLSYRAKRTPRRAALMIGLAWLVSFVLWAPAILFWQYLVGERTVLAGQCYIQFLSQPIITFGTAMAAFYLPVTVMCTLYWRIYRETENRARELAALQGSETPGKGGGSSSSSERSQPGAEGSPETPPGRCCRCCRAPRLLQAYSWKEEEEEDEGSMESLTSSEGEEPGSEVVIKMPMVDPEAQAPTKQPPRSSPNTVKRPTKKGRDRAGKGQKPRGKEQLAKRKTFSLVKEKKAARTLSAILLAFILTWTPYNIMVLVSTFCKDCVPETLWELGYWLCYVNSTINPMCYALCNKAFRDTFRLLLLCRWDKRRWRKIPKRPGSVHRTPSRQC
# Method: Measurement of M1 Receptor Positive Allosteric Modulator (M1PAM) Activity
# The activity of a test compound in the presence of acetylcholine at EC20 concentration (final concentration 0.8-1.0 nM), which affords an action corresponding to about 20% of the maximum activity, was measured as PAM activity. The method is as follows. CHO-K1 cells stably expressing a human M1 receptor (hCHRM1) were plated on a 384-well black clear bottom plate (BD Falcon) at 5,000 cells/well, and cultured in an incubator at 37° C., 5% CO2 for 1 day. The medium in the cell plate was removed, and assay buffer A containing calcium indicator (Recording medium (DOJINDO LABORATORIES), 0.1% BSA (Wako Pure Chemical Industries, Ltd.), 2.5 μg/mL Fluo-4 AM (DOJINDO LABORATORIES), 0.08% Pluronic F127 (DOJINDO LABORATORIES), 1.25 mM probenecid (DOJINDO LABORATORIES)) was added at 30 μL/well. The cells were left standing in the incubator at 37° C., 5% CO2 for 30 min, and further left standing at room temperature for 30 min. A test compound prepared by diluting with assay buffer B (HBSS (Invitrogen), 20 mM HEPES (Invitrogen), 0.1% BSA) containing 3.2-4.0 nM acetylcholine was added at 10 μL/well, and the fluorescence was measured by FDSS/pCELL (Hamamatsu Photonics K.K.) for 1 min every for 1 second. With the definition that the amount of change in the fluorescence on addition of acetylcholine (final concentration 1 μM) is 100% and that on addition of DMSO instead of a test compound is 0%, the activity (%) of the test compound was calculated, and the inflection point in the concentration-dependent curve of the test compound was calculated as IP values.
structure (smiles),measurement,setting,value
"Cc1c(Cc2ccc(C(=O)NC[C@@H]3CCCO3)c(F)c2)cc2c(=O)n([C@H]3CCOC[C@@H]3O)cnc2c1C [Example 80, 1,5-anhydro-2,3-dideoxy-3-(6-(3-fluoro-4-(((2S)-tetrahydrofuran-2-ylmethyl)carbamoyl)benzyl)-7,8-dimethyl-4-oxoquinazolin-3 (4H)-yl)-L-threo-pentitol]","efflux ratio at 1 hr, 1 μM",[1],9.5
same,activity (%) at 10 μM,[2],107%
same,EC50,[2],1.9 nM
"Cc1c(Cc2ccc(-c3cnn(C)c3)nc2)cc2c(=O)n([C@H]3CCOC[C@@H]3O)nnc2c1Cl [Example 54, 1,5-anhydro-3-(8-chloro-7-methyl-6-((6-(1-methyl-1H-pyrazol-4-yl)pyridin-3-yl)methyl)-4-oxo-1,2,3-benzotriazin-3 (4H)-yl)-2,3-dideoxy-L-threo-pentitol]","efflux ratio at 1 hr, 1 μM",[1],9.5
same,activity (%) at 10 μM,[2],106%
same,EC50,[2],0.99 nM
"Cc1c(Cc2ccc(-c3cnn(C4CCOCC4)c3)nc2)cc2c(=O)n([C@H]3CCOC[C@@H]3O)cnc2c1C [Example 75, 1,5-anhydro-2,3-dideoxy-3-(7,8-dimethyl-4-oxo-6-((6-(1-(tetrahydro-2H-pyran-4-yl)-1H-pyrazol-4-yl)pyridin-3-yl)methyl)quinazolin-3(4H)-yl)-L-threo-pentitol]","efflux ratio at 1 hr, 1 μM",[1],13
same,activity (%) at 10 μM,[2],108%
same,EC50,[2],3 nM
"COC1CN(C(=O)c2ccc(Cc3cc4c(=O)n([C@H]5CCOC[C@@H]5O)cnc4c(C)c3C)cc2)C1 [Example 41, 1,5-anhydro-2,3-dideoxy-3-(6-(4-((3-methoxyazetidin-1-yl)carbonyl)benzyl)-7,8-dimethyl-4-oxoquinazolin-3 (4H)-yl)-L-threo-pentitol]","efflux ratio at 1 hr, 1 μM",[1],13
same,activity (%) at 10 μM,[2],108%
same,EC50,[2],11 nM
"Cc1c(Cc2ccc(C(=O)NCCS(C)(=O)=O)c(F)c2)cc2c(=O)n([C@H]3CCOC[C@@H]3O)cnc2c1C [Example 84, 1,5-anhydro-2,3-dideoxy-3-(6-(3-fluoro-4-((2-(methylsulfonyl)ethyl)-carbamoyl)benzyl)-7,8-dimethyl-4-oxoquinazolin-3 (4H)-yl)-L-threo-pentitol]","efflux ratio at 1 hr, 1 μM",[1],11
same,activity (%) at 10 μM,[2],106%
same,EC50,[2],1.9 nM
"Cc1c(Cc2ccc(C(=O)NC3CC(F)(F)C3)cc2)cc2c(=O)n([C@H]3CCOC[C@@H]3O)cnc2c1C [Example 25, 1,5-anhydro-2,3-dideoxy-3-(6-(4-((3,3-difluorocyclobutyl)-carbamoyl)benzyl)-7,8-dimethyl-4-oxoquinazolin-3(4H)-yl)-L-threo-pentitol]","efflux ratio at 1 hr, 1 μM",[1],16
same,activity (%) at 10 μM,[2],109%
same,EC50,[2],1.9 nM
"Cc1c(Cc2ccc(-c3cnn(C)c3)cc2)cc2c(=O)n([C@H]3CCOC[C@@H]3O)cnc2c1C [Example 9, 1,5-anhydro-2,3-dideoxy-3-(7,8-dimethyl-6-(4-(1-methyl-1H-pyrazol-4-yl)benzyl)-4-oxoquinazolin-3(4H)-yl)-L-threo-pentitol]","efflux ratio at 1 hr, 1 μM",[1],2.1
same,activity (%) at 10 μM,[2],109%
same,EC50,[2],3.3 nM
"Cc1c(Cc2ccc(-c3ccn(C)n3)nc2)cc2c(=O)n([C@H]3CCOC[C@@H]3O)nnc2c1C [Example 59, 1,5-anhydro-2,3-dideoxy-3-(7,8-dimethyl-6-((6-(1-methyl-1H-pyrazol-3-yl)pyridin-3-yl)methyl)-4-oxo-1,2,3-benzotriazin-3 (4H)-yl)-L-threo-pentitol]","efflux ratio at 1 hr, 1 μM",[1],3.7
same,activity (%) at 10 μM,[2],108%
same,EC50,[2],2.6 nM
"Cc1c(Cc2ccc(C(=O)NC3COC3)cc2)cc2c(=O)n([C@H]3CCOC[C@@H]3O)cnc2c1C [Example 27, 1,5-anhydro-2,3-dideoxy-3-(7,8-dimethyl-6-(4-(oxetan-3-ylcarbamoyl)benzyl)-4-oxoquinazolin-3(4H)-yl)-L-threo-pentitol]","efflux ratio at 1 hr, 1 μM",[1],23
same,activity (%) at 10 μM,[2],110%
same,EC50,[2],1.4 nM
